Patent US20180273528A1 (LES LABORATOIRES SERVIER, priority 2015, published 2018)

How the values were obtained:
[1] = molecular target: T1, DYRK1A (Homo sapiens, UniProt Q13627); test: Kinase TR-FRET assay, DYRK1A; type: biochemical; design: full-length, wild-type human DYRK1A (NM_001396) with an HA tag; expressed in transfected cells; host or cells: human U2-OS osteosarcoma cells, transient transfection of a pcDNA3.1 plasmid; details: full-length human kinase, 10 μM ATP
Procedure: Inhibition of the enzymatic activity of human kinases was evaluated in a Time-Resolved Fluorescence Resonance Energy Transfer (TR-FRET) assay in 384-well reaction plates. […] Test compounds of the invention were added in reaction buffer at a range of concentrations from 0.1 nM to 30 μM. Following addition of EDTA (Sigma E7889, 10 mM) to stop the reaction, Europium-labelled mouse monoclonal antibody recognizing phospho-Thr232 in MBP (Perkin Elmer TRF0201, 1 nM) was added.

[2] = molecular target: T2, His-TEV-DYRK1A Kinase domain (aa127-485) (Homo sapiens, UniProt Q13627); test: Kinase ADP assay (ADP Hunter), DYRK1A kinase domain; type: biochemical; details: 20 μM ATP
T2 construct: His-TEV-DYRK1A Kinase domain (aa127-485); His tag (N); TEV protease cleavage site (N)
Procedure: The enzyme reaction was conducted in assay buffer (pH 7.4), containing 15 mM Hepes; 20 mM NaCl; 1 mM EGTA; 10 mM MgCl2; 0.02% Tween20 and 0.1 mg/ml Bovine-y-globulin. Test compounds of the invention were added in reaction buffer in a range of concentrations for 10 minutes at 30° C. in the presence of 20 nM DYRK1A enzyme, 40 μM peptide substrate and 20 μM ATP. Detection reagents (DiscoveRx 90-0083), ADP Hunter Plus Reagent A and then ADP Hunter Plus Reagent B were added. After a following 20 minutes incubation at 30° C., ADP Hunter Plus Stop Solution was added. The fluorescence intensity was measured at 590 nm.

[3] = molecular target: T1, DYRK1A; test: Cellular DYRK1 autophosphorylation assay in U2-OS cells; type: cell-based; design: full-length, wild-type human DYRK1A (NM_001396) with an HA tag; expressed in transfected cells; host or cells: human U2-OS osteosarcoma cells, transient transfection of a pcDNA3.1 plasmid; details: U2-OS cells transfected with HA-tagged human DYRK1A, 5 hours exposure; read-out: IC50 (μM) P-Ser520-Dyrk1A -Cell assay
Procedure: On day 2, cells were exposed to a range of concentrations of the test compounds of the invention for 5 hours. […] The relative levels of phospho-Ser520-DYRK1A were assayed using either western blotting or the Mesoscale ELISA platform. For analysis by western blot, lysates were diluted into Laemmli sample buffer (Bio-Rad) containing 5% v/v β-mercaptoethanol, heated for 5 min at 95° C., and resolved on Tris-glycine gels or NuPage Bis-Tris gels (Novex; Invitrogen). Biotinylated molecular weight standards (Cell Signaling Technology) were included in all gels. Proteins were transferred to nitrocellulose membranes (Hybond, ECL; Amersham), which were blocked in Tris-buffered saline/0.1% tween 20 (TBST) containing 5% milk, and probed at 4° C. overnight with anti-phospho-Ser520-DYRK1A antibody (Eurogentec SE6974-75; 0.23 μg/ml in 5% BSA) or anti DYRK1A antibody (Abnova H00001859; 0.5 μg/ml in 5% milk). Peroxidase-conjugated secondary antibodies were diluted into 5% milk and applied to membranes for 1 h at 20° C. Chemiluminescence detection was performed using the ECL plus western blotting detection kit (Amersham) and was recorded on ECL plus hyperfilm (Amersham). Blots were scanned using the Bio-Rad GS-800 calibrated densitometer and quantitative analysis of western blots was performed using TotalLab software (Amersham). IC50 values for inhibition of phospho-Ser520-DYRK1A were calculated from dose-response curves plotting the ratio between phospho-Ser520-DYRK1A and total DYRK1A signals at each concentration. […] Anti-phospho-Ser520-DYRK1A antibody (Eurogentec SE6974-75; […]) and anti DYRK1A antibody (Abnova H00001859; 3 μg/ml) was then added for 1 hour at RT, followed by addition of Sulfa-TAG anti-rabbit detection antibody (ref MSD R32AB; 1 μg/ml) and Sulfa-TAG anti-mouse detection antibody (ref MSD R32-AC-1; 1 μg/ml). After a further 1 hour, Read Buffer was added and plates were read on the Sector Imager 2400 (Mesoscale). IC50 values for inhibition of phospho-Ser520-DYRK1A were calculated from dose-response curves.

Structure (SMILES) | IC50 [1] | IC50 [2] | IC50 [3]
Cc1nc2ccc(-c3cc(N)nc(N)c3)nc2n1Cc1ccccc1 [Example 8, 4-(3-benzyl-2-methyl-3H-imidazo[4,5-b]pyridin-5-yl)pyridine-2,6-diamine] | 0.061 µM | 0.128 µM | –
Cc1nc2ccc(-c3cc(N)nc(N)c3)nc2n1[C@H]1C[C@H]2C[C@@H]([C@@H]1C)C2(C)C [Example 16, 4-[2-methyl-3-[(1S,2S,3S,5R)-2,6,6-trimethylbicyclo[3.1.1]hept-3-yl]-3H-imidazo[4,5-b]pyridin-5-yl]pyridine-2,6-diamine] | 0.153 µM | 0.367 µM | –
Cc1nc2ccc(-c3cc(N)nc(N)c3)nc2n1CC12CC3CC(CC(C3)C1)C2 [Example 22, 4-{2-methyl-3-tricyclo[3.3.1.1^3,7]dec-1-ylmethyl-3H-imidazo[4,5-b]pyridin-5-yl}pyridine-2,6-diamine] | 0.069 µM | 0.364 µM | –
Cc1cc([C@@H](C)n2c(C)nc3ccc(-c4cc(N)nc(N)c4)nc32)ccn1 [Example 32, 4-{2-methyl-3-[(I R)-1-(2-methylpyridin-4-yl)ethyl]-3H-imidazo[4,5-b]pyridin-5-yl}pyridine-2,6-diamine] | 0.095 µM | 0.037 µM | –
CCC(C)n1c(C)nc2ccc(-c3cc(N)nc(N)c3)nc21 (stereo not drawn) [Example 33, 4-[3-(butan-2-yl)-2-methyl-3H-imidazo[4,5-b]pyridin-5-yl]pyridine-2,6-diamine] | 0.045 µM | 0.018 µM | –
CCOC(=O)N1CCC(n2c(C)nc3ccc(-c4cc(N)nc(N)c4)nc32)CC1 [Example 35] | 0.012 µM | 0.008 µM | –
Cc1nc2ccc(-c3cc(N)nc(N)c3)nc2n1CC(O)CO (stereo not drawn) [Example 37, 3-[5-(2,6-diaminopyridin-4-yl)-2-methyl-3H-imidazo[4,5-b]pyridin-3-yl]propane-1,2-diol] | 0.052 µM | 0.027 µM | –
Cc1nc2ccc(-c3cc(N)nc(N)c3)nc2n1C1CCN(C(=O)C(C)C)CC1 [Example 38, 1-{4-[5-(2,6-diaminopyridin-4-yl)-2-methyl-3H-imidazo[4,5-b]pyridin-3-yl]piperidin-1-yl}-2-methylpropan-1-one] | 0.028 µM | 0.008 µM | –
Cc1nc2ccc(-c3cc(N)nc(N)c3)nc2n1CC(C)(C)Oc1ccccc1 [Example 116, 4-[2-methyl-3-(2-methyl-2-phenoxypropyl)-3H-imidazo[4,5-b]pyridin-5-yl]pyridine-2,6-diamine] | – | 0.056 µM | 0.267 µM
Cc1cccc(O[C@@H](C)Cn2c(C)nc3ccc(-c4cc(N)nc(N)c4)nc32)c1 [Example 127, 4-{2-methyl-3-[(2S)-2-(3-methylphenoxy)propyl]0.3H-imidazo[4,5-b]pyridin-5-yl}pyridine-2,6-diamine] | – | 0.015 µM | 0.089 µM
Cc1nc2ccc(-c3cc(N)nc(N)c3)nc2n1CCCOc1ccccc1 [Example 143, 4-[2-methyl-3-(3-phenoxypropyl)-3H-imidazo[4,5-b]pyridin-5-yl]pyridine-2,6-diamine] | – | 0.013 µM | 0.037 µM
Cc1nc2ccc(-c3cc(N)nc(N)c3)nc2n1CCOc1ccc(Cl)cn1 [Example 164, 4-(3-{2-[(5-chloropyridin-2-yl)oxy]ethyl}-2-methyl-3H-imidazo[4,5-b]pyridin-5-yl)pyridine-2,6-diamine] | – | 0.032 µM | 0.152 µM
Cc1nc2ccc(-c3cc(N)nc(N)c3)nc2n1CCOc1ncccc1Cl [Example 166, 4-(3-{2-[(3-chloropyridin-2-yl)oxy]ethyl}-2-methyl-3H-imidazo[4,5-b]pyridin-5-yl)pyridine-2,6-diamine] | – | 0.085 µM | 0.25 µM
Cc1nc2ccc(-c3cc(N)nc(N)c3)nc2n1CCOc1cccc(F)n1 [Example 167, 4-(3-{2-[(6-fluoropyridin-2-yl)oxy]ethyl}-2-methyl-3H-imidazo[4,5-b]pyridin-5-yl)pyridine-2,6-diamine] | – | 0.011 µM | 0.011 µM
Cc1nc2ccc(-c3cc(N)nc(N)c3)nc2n1CCOc1ccc(Br)cn1 [Example 170, 4-(3-{2-[(5-bromopyridin-2-yl)oxy]ethyl}-2-methyl-3H-imidazo[4,5-b]pyridin-5-yl)pyridine-2,6-diamine] | – | 0.035 µM | 0.131 µM
Cc1nc2ccc(-c3cc(N)nc(N)c3)nc2n1CCOc1ccc(F)cn1 [Example 171, 4-(3-{2-[(5-fluoropyridin-2-yl)oxy]ethyl}-2-methyl-3H-imidazo[4,5-b]pyridin-5-yl)pyridine-2,6-diamine] | – | 0.018 µM | 0.109 µM
Cc1nc2ccc(-c3cc(N)nc(N)c3)nc2n1CCOc1cccc(CF)n1 [Example 172, 4-[3-(2-{[6-(fluoromethyl)pyridin-2-yl]oxy}ethyl)-2-methyl-3H-imidazo[4,5-b]pyridin-5-yl]pyridine-2,6-diamine] | – | 0.007 µM | 0.092 µM
Cc1nc2ccc(-c3cc(N)nc(N)c3)nc2n1CCOc1cccc(C(F)F)n1 [Example 173, 4-[3-(2-{[6-(difluoromethyl)pyridin-2-yl]oxy}ethyl)-2-methyl-3H-imidazo[4,5-b]pyridin-5-yl]pyridine-2,6-diamine] | – | 0.007 µM | 0.017 µM
Cc1nc2ccc(-c3cc(N)nc(N)c3)nc2n1CCOc1cccc(C(F)(F)F)n1 [Example 194, 4-[2-methyl-3-(2-{[6-(trifluoromethyl)pyridin-2-yl]oxy}ethyl)-3H-imidazo[4,5-b]pyridin-5-yl]pyridine-2,6-diamine] | – | 0.007 µM | 0.02 µM
Cc1cccc(OCCn2c(C)nc3ccc(-c4cc(N)nc(N)c4)nc32)n1 [Example 195, 4-(2-methyl-3-{2-[(6-methylpyridin-2-yl)oxy]ethyl}-3H-imidazo[4,5-b]pyridin-5-yl)pyridine-2,6-diamine] | – | 0.013 µM | 0.106 µM
Cc1nc2ccc(-c3cc(N)nc(N)c3)nc2n1CCOc1cccc(N)n1 [Example 196, 4-(3-{2-[(6-aminopyridin-2-yl)oxy]ethyl}-2-methyl-3H-imidazo[4,5-b]pyridin-5-yl)pyridine-2,6-diamine] | – | 0.012 µM | 0.141 µM
Cc1nc2ccc(-c3cc(N)nc(N)c3)nc2n1CCOc1cccc(C#N)n1 [Example 197, 6-{2-[5-(2,6-diaminopyridin-4-yl)-2-methyl-3H-imidazo[4,5-b]pyridin-3-yl]ethoxy}pyridine-2-carbonitrile] | – | 0.007 µM | 0.054 µM
Cc1ccc(OCCn2c(C)nc3ccc(-c4cc(N)nc(N)c4)nc32)cc1 [Example 208, 4-{2-methyl-3-[2-(4-methylphenoxy)ethyl]-3H-imidazo[4,5-b]pyridin-5-yl}pyridine-2,6-diamine] | – | 0.016 µM | 0.155 µM
Cc1nc2ccc(-c3cc(N)nc(F)c3)nc2n1C1CC(F)(F)C1 [Example 240, 4-[3-(3,3-difluorocyclobutyl)-2-methyl-3H-imidazo[4,5-b]pyridin-5-yl]-6-fluoropyridin-2-amine] | – | 0.016 µM | 0.153 µM
